Experimental data: patent US20240189287A1, “PERIPHERALLY RESTRICTED CB1 RECEPTOR BLOCKERS AND USES THEREOF” (BIONANOSIM (BNS) LTD, priority 2021, published 2024)
Entries after “also recorded” stand apart in the source; their conditions may differ. Where two headings read alike, the source gives them in different places.

How the values were obtained:
[1] = system: MDR1-MDCKII cells; assay: MDR1-MDCK II cell permeation assay (bi-directional permeability, P-gp efflux); type: in vitro ADME
Procedure: (§1) Test and reference compounds were diluted with transport buffer (HBSS with 10 mM Hepes, pH 7.4) from stock solution to a concentration of 2 μM (DMSO<1%) and applied to the apical or basolateral side of the cell monolayer. Permeation of the test compounds from A to B direction or B to A direction was determined in duplicate with/without P-gp inhibitor (GF120918, 10 μM). […] The plate was incubated for 2.5 hours in CO2 incubator at 37±1° C., with 5% CO2 at saturated humidity without shaking. In addition, the efflux ratio of each compound was also determined. Test and reference compounds were quantified by LC-MS/MS analysis based on the peak area ratio of analyte/IS.
(§2) The in vitro bi-directional permeability across MDR1-MDCKII cells including P-glycoprotein (Pgp, ABCB1) efflux in the presence and absence of a P-gp inhibitor is an indicator as to the tendency of an orally administered compound to penetrate the brain.

[2] = system: P-gp (MDR1, ABCB1); assay: as above; type: in vitro ADME; details: dog, MDCK-MDR1, pH 7.4
Procedure: as §1, §2

[3] = target: hERG potassium channels (Homo sapiens (Human), UniProt Q12809); assay: hERG assay, automated patch clamp (SyncroPatch 384PE); type: cell-based; details: for potential for cardiotoxicity (QT prolongation): acceptance criteria IC50>100* Ki; for IC50: whole cell hERG currents
[4] = system: DIO (Diet-Induced-Obese) mice; assay: In vivo efficacy study in Diet Induced Obesity (DIO) model; parameters: species or system C57BL/6J mice
Procedure: In vivo efficacy study in Diet Induced Obesity (DIO) model: Male C57BL/6J mice were kept on a high fat diet for 24 weeks. […] Thereafter, metabolic assessment was performed in order to evaluate the efficacy of the treatment. The efficacy was evaluated by measurements of the following parameters: • 1. Body weight and food intake, • 2. Total energy expenditure (TEE) and respiratory quotient (RQ). • 3. Fat and Carbohydrate oxidation (FO and CHO, respectively), • 4. Total ambulation, • 5. Glucose homeostasis, • 6. Hepatic Steatosis and Liver Injury, • 7. Lipid profile, • 8. Kidney function.
Animals: The experimental protocol used is approved by the Institutional Animal Care and Use Committee of the Hebrew University. Male, 25 weeks old, C57BL/6J mice were purchased from Jackson laboratories. Mice were maintained under a 12-h light/dark cycle and fed ad libitum. To maintain diet-induced obesity, C57BL/6J mice were fed with high-fat diet (HFD) (60% of calories from fat, 20% from protein, and 20% from carbohydrates; Research Diet, D12492) for overall 30 weeks.
[…] Body weight and food intake were monitored daily. Total body fat and lean masses were determined by EchoMRI-100H™ (Echo Medical Systems LLC, Houston, TX, USA). 24 h urine was collected 2-4 days before euthanasia using mouse metabolic cages (CCS2000 Chiller System, Hatteras Instruments, NC, USA). At the end of the observation period, mice were euthanized by a cervical dislocation under anesthesia, the kidneys, liver, brain, spleen, fat, and pancreas were removed, and samples were fixed in buffered 4% formalin (for histopathological analysis) or snap frozen (for biochemistry analysis). Trunk blood was collected for determining the biochemical parameters.
Multi-parameter metabolic assessment: Metabolic profile of the mice was assessed by using the Promethion High-Definition Behavioral Phenotyping System
(Sable Instruments, Inc., Las Vegas, NV, USA). Data acquisition and instrument control were performed using MetaScreen software version 2.2.18.0, and the obtained raw data were processed using ExpeData version 1.8.4 using an analysis script detailing all aspects of data transformation. Mice with free access to food and water were subjected to a standard 12 hr light/12 hr dark cycle, which consisted of 48 hr acclimation period followed by 24 hr of sampling. Respiratory gases were measured by using the GA-3 gas analyzer (Sable Systems, Inc., Las Vegas, NV, USA) using a pull-mode, negative-pressure system. Air flow was measured and controlled by FR-8 (Sable Systems, Inc., Las Vegas, NV, USA), with a set flow rate of 2000 mL/min. Water vapor was continuously measured and its dilution effect on O2 and CO2 was mathematically compensated. Effective mass was calculated by [body mass]0.75. Fat oxidation (FO) and carbohydrate oxidation (CHO) were calculated as FO=1.69×VO2−1.69×VCO2 and CHO=4.57×VCO2−3.23×VO2 and expressed as g/d/kg^eff.Mass.
(§3) Locomotor activity: Locomotor activity was quantified by the number of disruptions of infrared XYZ beam arrays with a beam spacing of 0.25 cm in the Promethion High-Definition Behavioral Phenotyping System (Sable Instruments, Inc., Las Vegas, NV, USA).
Glucose tolerance (ipGTT) test and insulin sensitivity tests (ipIST): Mice that fasted overnight were injected with glucose (1.5 g/kg, IP), followed by a tail blood collection at 0, 15, 30, 45, 60, 90, 120 min. Blood glucose levels were determined using the Elite glucometer (Bayer, Pittsburgh, PA). Two days later, mice were fasted for 6 hr before receiving insulin (0.75 U/kg, IP; Eli Lilly, DC, USA or Actrapid® vial, novo nordisk A/S, Denmark), and blood glucose levels were determined at the same intervals.
Creatinine clearance was calculated using urine and serum creatinine levels (CCr mL/h=Urine creatinine mg/dL×Urine volume/Serum creatinine mg/dL×24 hr). Fasting blood glucose was measured using the Elite glucometer (Bayer, Pittsburgh, PA). […]

[5] = system: C57Bl/6J mice; assay: CNS-mediated hyperactivity, locomotor activity (Promethion); type: in vivo; details: wild-type male C57Bl/6J mice
Source text: as §3
The ability of BNS822 and BNS808 to induce CNS-mediated hyperactivity was further evaluated in a mouse model, using rimonabant (a brain penetrant CB1 receptor blocker) as a positive control. Mice (wild-type male C57Bl/6J) received a single dose of rimonabant (10 mg/kg IP), BNS822 (20 mg/kg PO) BNS 808 (1, 10 mg/kg PO) or vehicle; ambulatory activity was measured by the Promethion Metabolic System (Sable Instruments, Inc). In the same experimental scheme, BNS822, BNS808 and rimonabant were further studied regarding the potential to inhibit the hypomotility-induced by a CB1 receptor agonist, HU210, after a single dose of rimonabant (10 mg/kg IP), BNS822 (20 mg/kg PO) BNS808 (1, 10 mg/kg PO) or vehicle and a single dose of HU210 (30 μg/kg IP) 30 min after.

hERG potassium channels, sequence (Q12809 whole entry): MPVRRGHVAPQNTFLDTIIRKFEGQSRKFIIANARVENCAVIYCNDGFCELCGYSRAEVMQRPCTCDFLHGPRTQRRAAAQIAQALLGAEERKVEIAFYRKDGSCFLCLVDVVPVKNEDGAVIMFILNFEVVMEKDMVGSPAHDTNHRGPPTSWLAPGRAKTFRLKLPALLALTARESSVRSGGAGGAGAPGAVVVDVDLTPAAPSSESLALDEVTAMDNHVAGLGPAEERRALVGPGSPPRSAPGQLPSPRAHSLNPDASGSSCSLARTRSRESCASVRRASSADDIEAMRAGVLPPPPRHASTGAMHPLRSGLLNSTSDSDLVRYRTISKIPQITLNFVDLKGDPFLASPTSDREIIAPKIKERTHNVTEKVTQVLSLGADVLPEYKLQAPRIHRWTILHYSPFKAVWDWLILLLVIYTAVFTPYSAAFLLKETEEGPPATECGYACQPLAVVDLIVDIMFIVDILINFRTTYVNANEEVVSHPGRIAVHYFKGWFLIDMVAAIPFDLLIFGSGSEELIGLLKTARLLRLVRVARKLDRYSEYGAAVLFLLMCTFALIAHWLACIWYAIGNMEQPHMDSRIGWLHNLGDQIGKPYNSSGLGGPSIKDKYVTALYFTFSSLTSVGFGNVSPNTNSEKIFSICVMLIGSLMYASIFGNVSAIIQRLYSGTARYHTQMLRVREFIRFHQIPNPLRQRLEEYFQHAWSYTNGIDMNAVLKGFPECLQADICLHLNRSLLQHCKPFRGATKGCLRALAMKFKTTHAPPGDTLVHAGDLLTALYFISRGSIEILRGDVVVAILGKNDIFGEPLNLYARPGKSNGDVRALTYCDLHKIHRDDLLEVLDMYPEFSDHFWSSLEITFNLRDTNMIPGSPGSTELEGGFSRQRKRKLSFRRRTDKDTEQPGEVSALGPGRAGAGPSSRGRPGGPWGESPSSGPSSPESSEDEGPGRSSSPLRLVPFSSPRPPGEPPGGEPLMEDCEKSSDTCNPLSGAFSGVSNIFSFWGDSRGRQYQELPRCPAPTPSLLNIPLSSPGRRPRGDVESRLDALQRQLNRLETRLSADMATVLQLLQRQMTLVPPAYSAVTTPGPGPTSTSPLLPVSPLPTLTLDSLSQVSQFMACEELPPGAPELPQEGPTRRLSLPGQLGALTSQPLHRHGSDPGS

SMILES: O=S(=O)(NC1CCCOc2c1nn(-c1ccccc1Cl)c2-c1ccc(Cl)cc1)c1ccc(Cl)cc1 (stereo not drawn) [BNS808, 4-chloro-N-[2-(2-chlorophenyl)-3-(4-chlorophenyl)-5,6,7,8-tetrahydrooxepino[3,2-c]pyrazol-8-yl]benzenesulfonamide]
- Rank Papp ([1]; MDCK-MDR1): Low
- MDR1 B:A/A:B ([1]; efflux ratio, without P-gp inhibitor): 3.95
- efflux ratio at 2.5 h, 2 μM ([2]; efflux ratio in the presence of P-gp inhibitor GF120918, read-out: MDR1 B:A/A:B (+P-gp inhibitor)): 1.88
- Hill slope [3]: 0.89
- potential for cardiotoxicity (QT prolongation) [3]: low
- IC50 [3]: 5.39 µM
- reduction of the body weight ([4]; 1 mg/kg daily PO, DIO mice on HFD, after 24 days): ~15%
- ambulatory activity ([4]; 1 mg/kg/day continued PO, DIO mice): did not affect
- locomotor activity (CNS-mediated hyperactivity) ([5]; single dose 1, 10 mg/kg PO): no locomotor effects

SMILES: Cc1ccc(C)c(OCCCC(C)(C)C(=O)NC2CCCOc3c2nn(-c2ccccc2Cl)c3-c2ccc(Cl)cc2)c1 (stereo not drawn) [BNS822, N-[2-(2-chlorophenyl)-3-(4-chlorophenyl)-5,6,7,8-tetrahydrooxepino[3,2-c]pyrazol-8-yl]-5-(2,5-dimethylphenoxy)-2,2-dimethyl-pentanamide]
- P-gp substrate [1]: P-gp substrates and Yes
- Rank Papp [1]: Low
- Papp at 2.5 h, 2 μM ([2]; 2 μM, A to B, 2.5 hours): < 0.02 ×10⁻⁶ cm/s
- efflux ratio at 2.5 h, 2 μM ([2]; efflux ratio, without P-gp inhibitor, read-out: MDR1 B:A/A:B): > 3.62
- potential for cardiotoxicity (QT prolongation) [3]: low
- IC50 [3]: > 30 µM
- weight loss ([4]; 20 mg/kg continued administration, DIO mice): 20%
- body weight ([4]; 20 mg/kg/day PO, DIO mice): significantly reduced
- food intake ([4]; 20 mg/kg/day PO, DIO mice): significant decrease
- circulating fed insulin (plasma) levels ([4]; 20 mg/kg/day PO, DIO/HFD mice): significantly lower; also recorded: significant reductions
- glucose levels in fed and fasting conditions ([4]; 20 mg/kg/day PO, DIO/HFD mice): no change; also recorded: no significant changes
- glucose tolerance (GTT, AUC) ([4]; 20 mg/kg/day PO, DIO/HFD mice): improved; also recorded: significant reductions
- insulin sensitivity (ITT) ([4]; 20 mg/kg/day PO, DIO/HFD mice): no improvement; also recorded: no significant changes
- ALT levels ([4]; 20 mg/kg/day PO, HFD mice): Significant reductions
- fat vacuoles deposition in the liver ([4]; 20 mg/kg/day PO, HFD mice): reduction
- liver TG content ([4]; 20 mg/kg/day PO, HFD mice): Significant reductions
- liver cholesterol ([4]; 20 mg/kg/day PO, HFD mice): not
- locomotor activity (CNS-mediated hyperactivity) ([5]; single dose 20 mg/kg PO): no locomotor effects
